Here are results for one compound from patent US7566528B2, “Method for the identification and/or validation of receptor tyrosine kinase inhibitors” (Esbatech AG, priority 2003, dated 2009).

Experiment [1] addresses T1, human receptor tyrosine kinase PDGFR-β (Homo sapiens, UniProt P09619).
T1 construct: N-terminus of the cytoplasmic domains of c-Met (AA932-1366) and PDGFRβ (AA524-1067); myristoylation signal (membrane anchoring) (N); expressed in transfected cells; host or cells: yeast (S. cerevisiae preferred)
As to the kind of experiment: Yeast growth restoration assay, cells expressing PDGFR-β (OD 600 nm). It counts as cell-based. To be noted: 50 μM in the yeast culture; OD 600 nm light scattering; FIG. 3. An excerpt: (§1) Selection of specific inhibition of Receptor Tyrosine Kinase activity in yeast.

The test system of experiment [2] is human receptor tyrosine kinase RET. The experiment in a line: Yeast growth restoration assay, cells expressing RET (OD 600 nm). It counts as cell-based. As to conditions: 50 μM in the yeast culture; OD 600 nm light scattering; FIG. 3.
From the text: as §1

Entries after “also recorded” stand apart in the source; their conditions may differ. Where a name gives a salt, the structure may show the parent alone.

T1 sequence (P09619 556-1099): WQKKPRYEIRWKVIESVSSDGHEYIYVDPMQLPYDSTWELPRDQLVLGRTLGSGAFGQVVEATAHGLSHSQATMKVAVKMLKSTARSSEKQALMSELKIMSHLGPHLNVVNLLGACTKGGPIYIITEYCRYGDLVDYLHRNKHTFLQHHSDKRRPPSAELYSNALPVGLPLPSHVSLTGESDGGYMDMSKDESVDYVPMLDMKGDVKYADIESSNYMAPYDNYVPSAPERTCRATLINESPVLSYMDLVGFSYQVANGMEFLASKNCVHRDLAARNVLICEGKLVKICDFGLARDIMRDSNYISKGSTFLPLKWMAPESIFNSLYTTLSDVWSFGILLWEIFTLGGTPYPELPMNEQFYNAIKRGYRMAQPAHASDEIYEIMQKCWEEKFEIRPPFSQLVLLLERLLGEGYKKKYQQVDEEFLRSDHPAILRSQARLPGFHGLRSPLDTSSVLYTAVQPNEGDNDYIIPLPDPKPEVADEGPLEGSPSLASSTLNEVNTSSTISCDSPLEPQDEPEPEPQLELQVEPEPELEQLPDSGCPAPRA

Turning to `Cc1ccc(NC(=O)c2ccc(CN3CCN(C)CC3)cc2)cc1Nc1nccc(-c2cccnc2)n1` [imatinib mesylate], the “restoration of growth of PDGFR-β-expressing yeast cells” value in experiment [1] is recorded as “restore growth under selective conditions; also recorded: specifically restores growth”. Also, in experiment [2], the “restoration of growth of RET-expressing yeast cells” value is on record as “not growth of cells expressing RET”.
